# Reference: ChEMBL document CHEMBL1201862, “PubChem BioAssay data set” (2004)
# The source made the active and inactive calls.
# Experiments:
# [1] = molecular target: T1, Microphthalmia-associated transcription factor (Homo sapiens, UniProt O75030); experiment: reducers of TRPM1 reporter luminescence, concentration series – cell-based, SK-MEL-5, cherry-picked, set 3, MITF inhibitor project, dose response (AID 493073); assay type: functional;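 further: SK-MEL-5 melanoma cells with luciferase driven by the MITF target TRPM1 promoter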
# T1 sequence (O75030 whole entry): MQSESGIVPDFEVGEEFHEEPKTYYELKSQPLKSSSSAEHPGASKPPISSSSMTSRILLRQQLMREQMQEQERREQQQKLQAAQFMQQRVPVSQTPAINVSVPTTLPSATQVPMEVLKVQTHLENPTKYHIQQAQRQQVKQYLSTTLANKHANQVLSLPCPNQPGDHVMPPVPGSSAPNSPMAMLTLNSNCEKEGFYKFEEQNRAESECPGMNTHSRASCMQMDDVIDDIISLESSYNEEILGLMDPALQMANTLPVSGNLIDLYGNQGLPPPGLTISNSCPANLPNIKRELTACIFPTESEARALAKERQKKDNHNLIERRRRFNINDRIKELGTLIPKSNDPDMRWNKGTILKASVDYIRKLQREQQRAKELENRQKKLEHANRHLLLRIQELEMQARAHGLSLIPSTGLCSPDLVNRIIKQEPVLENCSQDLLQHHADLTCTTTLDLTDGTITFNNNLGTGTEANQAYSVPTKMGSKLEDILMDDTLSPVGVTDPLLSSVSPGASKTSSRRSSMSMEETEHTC
# [2] = NIH3T3 cell viability loss – ATP luminescence, mouse fibroblasts, counter-screen, dose response (AID 2010); assay type: functional, cell-based;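 further: cells exposed to compound for about 90 hours before reading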
# [3] = Trypanosoma cruzi growth suppression in host cells – NIH3T3 host cells, beta-gal luminescence, confirmation (AID 2044); assay type: functional, cell-based;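 further: intracellular parasites grown in NIH/3T3 mouse fibroblasts as host cells; luminescent beta-galactosidase reporter signal from transgenic T. cruzi replicating inside host cells; inhibitors lower the luminescence signal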
# [4] = molecular target: T2, Short transient receptor potential channel 4 (Mus musculus, UniProt Q9QUQ5); experiment: calcium entry via TRPC4 opening agents – cell-based, HEK293 TRPC4/mu-opioid, Fluo-4 calcium, dose response (AID 434937); assay type: functional
# T2 sequence (Q9QUQ5 whole entry): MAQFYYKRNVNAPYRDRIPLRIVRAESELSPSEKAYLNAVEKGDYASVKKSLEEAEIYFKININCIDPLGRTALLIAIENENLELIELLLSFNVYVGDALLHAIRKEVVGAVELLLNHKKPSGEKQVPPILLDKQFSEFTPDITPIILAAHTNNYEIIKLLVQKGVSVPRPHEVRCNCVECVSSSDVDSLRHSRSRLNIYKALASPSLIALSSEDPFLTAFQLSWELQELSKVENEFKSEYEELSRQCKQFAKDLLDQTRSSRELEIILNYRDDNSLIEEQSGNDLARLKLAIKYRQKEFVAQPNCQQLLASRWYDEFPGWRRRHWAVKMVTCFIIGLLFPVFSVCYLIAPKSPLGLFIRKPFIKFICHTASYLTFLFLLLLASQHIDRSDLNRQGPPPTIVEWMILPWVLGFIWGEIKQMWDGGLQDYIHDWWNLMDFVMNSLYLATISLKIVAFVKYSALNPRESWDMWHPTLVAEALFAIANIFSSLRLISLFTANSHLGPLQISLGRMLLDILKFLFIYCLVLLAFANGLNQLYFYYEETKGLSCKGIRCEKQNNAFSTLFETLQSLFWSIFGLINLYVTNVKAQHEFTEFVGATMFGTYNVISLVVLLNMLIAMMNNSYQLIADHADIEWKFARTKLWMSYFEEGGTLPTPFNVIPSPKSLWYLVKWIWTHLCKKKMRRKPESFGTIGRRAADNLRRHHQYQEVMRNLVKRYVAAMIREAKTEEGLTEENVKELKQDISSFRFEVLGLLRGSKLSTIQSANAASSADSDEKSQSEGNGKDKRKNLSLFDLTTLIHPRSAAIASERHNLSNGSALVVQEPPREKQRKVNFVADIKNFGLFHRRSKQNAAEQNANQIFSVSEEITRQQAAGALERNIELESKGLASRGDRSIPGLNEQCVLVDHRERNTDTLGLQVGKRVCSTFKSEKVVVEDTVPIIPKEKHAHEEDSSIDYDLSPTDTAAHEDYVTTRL
# [5] = molecular target: T2, Short transient receptor potential channel 4; experiment: block of DAMGO-driven TRPC4 calcium entry – cell-based, HEK293 TRPC4/mu-opioid, Fluo-4 calcium, dose response (AID 434942); assay type: functional;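 further: potency of inhibitors blocking the TRPC4 calcium response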
# [6] = molecular target: T3, Heat shock factor protein 1 (Mus musculus, UniProt P38532); experiment: decrease of HSF1-responsive luciferase luminescence – cell-based, NIH3T3, dose retest, confirmation (AID 2382); assay type: functional;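 further: NIH3T3 fibroblasts with HSF1-driven luciferase reporter stressed by proteasome inhibitor MG132; luminescence from HSF1-driven luciferase expression after 8 hours of MG132 stress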
# T3 sequence (P38532 whole entry): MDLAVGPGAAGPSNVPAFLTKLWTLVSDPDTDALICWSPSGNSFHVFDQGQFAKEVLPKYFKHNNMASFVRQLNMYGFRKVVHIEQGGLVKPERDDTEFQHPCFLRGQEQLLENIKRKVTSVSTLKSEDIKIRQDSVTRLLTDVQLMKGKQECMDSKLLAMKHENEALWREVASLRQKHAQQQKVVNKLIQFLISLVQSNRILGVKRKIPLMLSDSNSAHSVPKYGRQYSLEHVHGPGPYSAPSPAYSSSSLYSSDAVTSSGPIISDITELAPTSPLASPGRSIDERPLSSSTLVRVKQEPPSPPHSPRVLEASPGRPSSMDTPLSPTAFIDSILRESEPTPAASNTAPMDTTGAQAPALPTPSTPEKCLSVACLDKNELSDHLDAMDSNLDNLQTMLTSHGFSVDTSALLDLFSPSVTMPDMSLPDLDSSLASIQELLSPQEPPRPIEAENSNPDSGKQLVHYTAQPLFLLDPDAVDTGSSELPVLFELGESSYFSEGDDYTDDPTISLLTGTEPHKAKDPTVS
# [7] = fluconazole-exposed Candida albicans growth modulators – fluorescence, retest, confirmation (AID 2467); assay type: functional, cell-based
# [8] = Luminescence Cell-Based Dose Confirmation HTS to Identify Inhibitors of Platelet Dense Granule Release. [Related pubchem assays: 1663 (Primary HTS), 1678 (Summary of Project)]; assay type: functional
# [9] = NIH-3T3 fibroblast cytotoxicity, dose response, cytotoxicity control, cell-based, fluorescence, Alamar Blue, secondary assay (AID 2327); assay type: functional;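 further: NIH-3T3 mouse fibroblasts cultured with fluconazole at 8 µg/mL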
# [10] = tested on: Streptococcus sp. 'group A'; experiment: Streptococcus pyogenes SK(-)GAS viability under kanamycin – luminescence, BacTiterGlo, confirmation, counter-screen for streptokinase expression inhibitor project, dose response (AID 1900); assay type: functional, organism-based
# [11] = molecular target: Heat shock protein HSP 90-alpha (Homo sapiens, UniProt P07900); assay type: functional, organism-based
# [12] = molecular target: Luciferin 4-monooxygenase (Photinus pyralis, UniProt P08659); experiment: inhibition of purified Photinus pyralis luciferase – biochemical, luminescence, dose response (AID 1891)
# INS1 = experiment: INS-1E survival protection against cytokine death – cell-based, luminescence, retest, dose response (AID 449756); assay type: functional; conditions: Rattus norvegicus;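 further: cell death triggered by IL-1 beta plus TNF-alpha plus IFN-gamma mixture; protective hits raise ATP signal compared with cytokine alone wells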
# HEK293 = experiment: EBV LMP1 TES2 canonical NF-kB signalling blockers – cell-based, HEK293, luciferase, cherry-pick, dose response (AID 588343); assay type: functional; conditions: Homo sapiens
# Streptococcus = experiment: GAS UMAA2166 growth inhibition – luminescence, BacTiterGlo, counter-screen for streptokinase expression inhibitor project, dose response (AID 1915); assay type: functional, organism-based;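 further: potency for reduction of bacterial viability or growth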
# [13] = molecular target: T4, High affinity choline transporter 1 (Homo sapiens, UniProt Q9GZV3); experiment: human choline transporter blockers, potency – cell-based, 5-point CRC, membrane potential dye, dose response (AID 504840); assay type: functional
# T4 sequence (Q9GZV3 whole entry): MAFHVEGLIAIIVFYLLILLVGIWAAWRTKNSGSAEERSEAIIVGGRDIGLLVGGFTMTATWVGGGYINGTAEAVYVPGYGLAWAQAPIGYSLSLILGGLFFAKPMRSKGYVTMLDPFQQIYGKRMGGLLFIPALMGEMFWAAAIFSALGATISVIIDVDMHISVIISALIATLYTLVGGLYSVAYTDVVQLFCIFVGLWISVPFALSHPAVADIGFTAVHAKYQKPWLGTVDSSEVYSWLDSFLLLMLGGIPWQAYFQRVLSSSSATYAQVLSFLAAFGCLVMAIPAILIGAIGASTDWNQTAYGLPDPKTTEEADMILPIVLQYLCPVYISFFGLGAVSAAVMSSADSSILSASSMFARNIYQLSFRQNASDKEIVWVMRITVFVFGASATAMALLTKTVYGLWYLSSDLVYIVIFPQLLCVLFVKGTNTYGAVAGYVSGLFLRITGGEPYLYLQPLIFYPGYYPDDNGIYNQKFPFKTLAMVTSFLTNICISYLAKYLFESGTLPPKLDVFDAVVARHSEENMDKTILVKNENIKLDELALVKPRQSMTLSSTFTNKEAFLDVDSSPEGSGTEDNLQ
# [14] = molecular target: T4, High affinity choline transporter 1; experiment: human choline transporter blockers, potency – cell-based, 10-point CRC, membrane potential dye, dose response (AID 588401); assay type: functional;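 further: membrane potential dye fluorescence of choline-evoked depolarization via CHT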
# [15] = viability of PTEN-deleted HCT116 cells – cell-based, HCT116 PTEN knockout, dose response (AID 1047); assay type: functional;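 further: HCT116 colon tumor cells with PTEN knocked out; cells exposed to compound for 60 hours before readout; potency for loss of cell viability measured by luminescence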
# [16] = viability of HCT116 lacking mutant beta-catenin – cell-based, human colon tumor, dose response (AID 1045); assay type: functional;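 further: HCT116 colon tumor cells with beta catenin knocked out; cells exposed to compound for 60 hours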
# [17] = molecular target: T5, Voltage-gated N-type calcium channel alpha-1B subunit/Amyloid beta A4 precursor protein-binding family A member 1 (Homo sapiens, UniProt Q00975+Q02410); assay type: protein assay
# [18] = molecular target: T5, Voltage-gated N-type calcium channel alpha-1B subunit/Amyloid beta A4 precursor protein-binding family A member 1; assay type: protein assay; remark: listed apart in the source
# [19] = molecular target: T6, Calpain-2 catalytic subunit (Sus scrofa, UniProt P43367); experiment: m-calpain protease blockers, concentration series – biochemical, fluorogenic peptide substrate, dose response (AID 1420); assay type: functional
# T6 sequence (P43367 whole entry): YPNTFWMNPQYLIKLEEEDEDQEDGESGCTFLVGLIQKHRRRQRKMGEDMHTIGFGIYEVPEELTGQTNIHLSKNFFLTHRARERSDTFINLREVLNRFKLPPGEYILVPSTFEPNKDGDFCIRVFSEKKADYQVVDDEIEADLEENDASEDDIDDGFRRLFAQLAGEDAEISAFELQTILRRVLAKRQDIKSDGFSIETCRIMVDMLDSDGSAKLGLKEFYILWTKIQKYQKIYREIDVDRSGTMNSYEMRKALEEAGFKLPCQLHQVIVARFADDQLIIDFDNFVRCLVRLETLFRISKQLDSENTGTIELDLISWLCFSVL
# [20] = Luminescence-based cell-based high throughput dose response assay to identify activators of the DAF-12 from the parasite S. stercoralis (ssDAF-12).; assay type: functional
# Cytochrome P450 2D6 = Cytochrome P450 2D6 (Homo sapiens, UniProt P10635);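 further: CYP2D6 member of a cytochrome P450 panel assay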
# Chain of Cytochrome P450 2D6 (P10635 whole entry): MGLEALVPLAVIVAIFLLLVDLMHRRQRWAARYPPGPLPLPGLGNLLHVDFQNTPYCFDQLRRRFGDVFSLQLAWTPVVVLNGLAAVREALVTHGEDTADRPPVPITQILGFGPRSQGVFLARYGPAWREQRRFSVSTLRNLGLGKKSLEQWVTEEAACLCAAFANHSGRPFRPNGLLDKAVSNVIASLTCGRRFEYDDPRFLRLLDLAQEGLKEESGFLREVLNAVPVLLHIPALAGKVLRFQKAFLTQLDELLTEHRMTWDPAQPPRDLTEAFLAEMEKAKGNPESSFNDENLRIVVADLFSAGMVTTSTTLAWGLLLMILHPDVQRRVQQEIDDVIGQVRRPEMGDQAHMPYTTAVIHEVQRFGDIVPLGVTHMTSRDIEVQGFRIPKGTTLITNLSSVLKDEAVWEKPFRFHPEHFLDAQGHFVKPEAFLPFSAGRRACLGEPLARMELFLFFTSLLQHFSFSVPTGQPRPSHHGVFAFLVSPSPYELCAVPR
# T5 sequence (Q00975 whole entry): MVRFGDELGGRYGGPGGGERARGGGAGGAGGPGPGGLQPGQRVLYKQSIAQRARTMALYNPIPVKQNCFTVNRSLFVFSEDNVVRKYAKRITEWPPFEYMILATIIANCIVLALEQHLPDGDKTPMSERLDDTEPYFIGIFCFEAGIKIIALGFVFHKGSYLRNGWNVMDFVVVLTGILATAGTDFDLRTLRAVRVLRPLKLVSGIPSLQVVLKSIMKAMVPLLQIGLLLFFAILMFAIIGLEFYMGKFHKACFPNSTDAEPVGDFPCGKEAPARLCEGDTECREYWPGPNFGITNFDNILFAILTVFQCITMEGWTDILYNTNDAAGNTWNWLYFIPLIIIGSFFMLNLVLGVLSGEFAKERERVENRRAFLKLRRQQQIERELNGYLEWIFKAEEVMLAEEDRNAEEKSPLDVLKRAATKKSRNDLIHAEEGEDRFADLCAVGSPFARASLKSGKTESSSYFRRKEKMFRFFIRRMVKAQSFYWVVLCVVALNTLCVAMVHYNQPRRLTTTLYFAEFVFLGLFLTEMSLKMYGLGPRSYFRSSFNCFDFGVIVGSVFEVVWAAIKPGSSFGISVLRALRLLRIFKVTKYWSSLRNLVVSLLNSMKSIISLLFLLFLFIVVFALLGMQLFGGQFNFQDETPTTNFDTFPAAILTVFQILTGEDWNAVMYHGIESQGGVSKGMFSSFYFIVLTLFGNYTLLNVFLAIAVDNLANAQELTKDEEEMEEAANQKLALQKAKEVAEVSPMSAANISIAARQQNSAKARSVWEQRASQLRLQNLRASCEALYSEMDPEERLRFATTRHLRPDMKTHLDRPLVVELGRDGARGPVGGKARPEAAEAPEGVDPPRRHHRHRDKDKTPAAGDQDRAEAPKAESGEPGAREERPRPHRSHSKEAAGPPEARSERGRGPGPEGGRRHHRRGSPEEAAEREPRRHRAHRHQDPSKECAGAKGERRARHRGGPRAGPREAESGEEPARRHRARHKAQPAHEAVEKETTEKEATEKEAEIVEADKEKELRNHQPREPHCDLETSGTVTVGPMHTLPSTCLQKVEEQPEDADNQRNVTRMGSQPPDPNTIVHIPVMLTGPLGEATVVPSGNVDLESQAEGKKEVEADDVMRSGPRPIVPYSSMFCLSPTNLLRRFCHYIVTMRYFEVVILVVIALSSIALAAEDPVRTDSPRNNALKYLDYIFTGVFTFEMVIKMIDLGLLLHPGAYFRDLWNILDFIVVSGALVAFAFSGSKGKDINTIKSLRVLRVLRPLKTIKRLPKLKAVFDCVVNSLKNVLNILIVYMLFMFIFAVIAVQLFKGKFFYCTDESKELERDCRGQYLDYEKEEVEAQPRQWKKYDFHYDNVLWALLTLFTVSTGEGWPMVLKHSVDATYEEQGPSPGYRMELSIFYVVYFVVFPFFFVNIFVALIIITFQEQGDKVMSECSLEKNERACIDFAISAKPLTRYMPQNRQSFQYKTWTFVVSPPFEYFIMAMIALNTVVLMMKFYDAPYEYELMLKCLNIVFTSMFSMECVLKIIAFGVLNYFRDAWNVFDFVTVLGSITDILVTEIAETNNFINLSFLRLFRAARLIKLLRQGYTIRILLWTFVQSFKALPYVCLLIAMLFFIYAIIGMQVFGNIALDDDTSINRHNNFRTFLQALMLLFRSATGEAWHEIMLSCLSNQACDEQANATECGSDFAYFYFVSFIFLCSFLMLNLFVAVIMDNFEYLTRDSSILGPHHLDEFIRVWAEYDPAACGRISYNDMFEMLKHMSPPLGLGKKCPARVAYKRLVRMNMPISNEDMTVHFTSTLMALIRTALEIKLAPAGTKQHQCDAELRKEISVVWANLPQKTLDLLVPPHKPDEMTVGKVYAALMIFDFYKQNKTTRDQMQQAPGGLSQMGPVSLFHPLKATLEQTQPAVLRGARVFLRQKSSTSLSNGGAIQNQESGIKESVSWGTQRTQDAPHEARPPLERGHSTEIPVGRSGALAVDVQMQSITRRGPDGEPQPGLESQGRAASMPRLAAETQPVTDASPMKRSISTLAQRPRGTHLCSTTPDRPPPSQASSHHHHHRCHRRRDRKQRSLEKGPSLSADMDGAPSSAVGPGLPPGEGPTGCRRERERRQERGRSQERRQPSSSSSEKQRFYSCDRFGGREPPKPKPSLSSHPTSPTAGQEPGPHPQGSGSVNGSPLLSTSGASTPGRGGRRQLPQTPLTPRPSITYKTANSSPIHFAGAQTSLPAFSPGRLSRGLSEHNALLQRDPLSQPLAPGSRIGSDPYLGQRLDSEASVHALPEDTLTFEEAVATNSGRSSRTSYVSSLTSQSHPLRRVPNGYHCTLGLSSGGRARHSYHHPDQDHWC
# T5 sequence (Q02410 whole entry): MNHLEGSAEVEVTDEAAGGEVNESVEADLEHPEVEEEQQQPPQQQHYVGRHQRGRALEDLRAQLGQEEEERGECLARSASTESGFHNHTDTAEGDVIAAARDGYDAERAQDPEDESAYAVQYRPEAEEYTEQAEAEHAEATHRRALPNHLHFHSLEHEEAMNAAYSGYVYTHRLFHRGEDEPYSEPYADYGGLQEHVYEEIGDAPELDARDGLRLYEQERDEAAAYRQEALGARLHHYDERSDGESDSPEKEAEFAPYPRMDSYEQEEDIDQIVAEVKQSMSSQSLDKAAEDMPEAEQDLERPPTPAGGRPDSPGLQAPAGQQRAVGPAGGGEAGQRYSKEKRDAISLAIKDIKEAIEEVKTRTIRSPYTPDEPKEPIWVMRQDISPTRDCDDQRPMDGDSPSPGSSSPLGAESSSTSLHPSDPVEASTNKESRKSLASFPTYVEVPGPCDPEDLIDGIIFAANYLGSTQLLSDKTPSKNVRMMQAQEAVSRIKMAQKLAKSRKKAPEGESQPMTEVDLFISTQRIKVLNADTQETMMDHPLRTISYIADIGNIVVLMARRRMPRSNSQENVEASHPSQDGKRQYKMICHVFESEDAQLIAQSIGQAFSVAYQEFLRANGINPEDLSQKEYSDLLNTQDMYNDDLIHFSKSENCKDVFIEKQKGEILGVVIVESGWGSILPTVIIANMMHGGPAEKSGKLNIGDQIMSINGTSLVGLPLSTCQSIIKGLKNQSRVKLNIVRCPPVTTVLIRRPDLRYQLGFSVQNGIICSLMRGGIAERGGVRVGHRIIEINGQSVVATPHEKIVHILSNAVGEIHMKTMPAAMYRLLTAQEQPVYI
# Chain of Luciferin 4-monooxygenase (P08659 whole entry): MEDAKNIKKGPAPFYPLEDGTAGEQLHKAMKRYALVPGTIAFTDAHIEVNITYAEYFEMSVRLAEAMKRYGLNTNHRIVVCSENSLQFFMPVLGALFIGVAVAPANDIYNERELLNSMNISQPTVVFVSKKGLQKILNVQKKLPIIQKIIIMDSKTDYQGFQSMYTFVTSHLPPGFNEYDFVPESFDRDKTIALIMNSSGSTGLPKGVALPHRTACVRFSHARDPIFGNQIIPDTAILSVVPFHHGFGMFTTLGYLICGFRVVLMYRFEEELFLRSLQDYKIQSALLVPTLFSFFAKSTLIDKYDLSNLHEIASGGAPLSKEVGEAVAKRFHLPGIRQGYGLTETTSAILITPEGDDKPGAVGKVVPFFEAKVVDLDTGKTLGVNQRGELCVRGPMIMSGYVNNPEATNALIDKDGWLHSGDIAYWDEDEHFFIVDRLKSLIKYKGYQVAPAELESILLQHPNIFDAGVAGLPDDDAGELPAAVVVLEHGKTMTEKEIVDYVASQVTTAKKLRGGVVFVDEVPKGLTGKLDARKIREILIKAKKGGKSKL
compound,measurement,setting,value
COc1ccc(S(=O)(=O)N2CCCCC2)cc1NC(=O)c1ccc([N+](=O)[O-])o1,AC50,[1],9.14 µM (active)
same,EC50,[2],11.9 µM (active)
same,EC50,[3],4.55 µM (active)
CN(C)C(CN=C(S)Nc1ccc(F)cc1)c1cccnc1 (stereo not given),EC50,[4],0.0173 µM (active)
CCc1ccc(C(CNc2nc(C(F)(F)F)nc3ccccc23)N(C)C)cc1 (stereo not given),EC50,[4],2.99 µM (active)
same,EC50,[5],1.06 µM (active)
same,EC50,[6],> 195 µM (not active)
CN1CCC(CNC(=O)Nc2ccccc2)(c2ccccc2)CC1,EC50,[4],1.33 µM (active)
CCn1c2ccccc2c2cc(CNCCCN3CCOCC3)ccc21,EC50,cells,0.013 µM (active)
same,EC50,[2],> 60 µM (not active)
same,EC50,[3],< 0.1 µM (active)
N#Cc1cc2c(nc1SC1CC(=O)N(c3ccccc3)C1=O)CCC2 (stereo not given),AC50,[1],1.78 µM (active)
O=C(NC(c1ccc(Cl)cc1)c1cc(Cl)c2cccnc2c1O)c1cccnc1 (stereo not given),EC50,[7],0.66 µM (active)
same,EC50,[8],> 112 µM (not active)
same,EC50,[9],8.56 µM (inconclusive)
same,EC50,[10],0.73 µM (active)
same,AC50,[11],24.2 µM (active)
same,EC50,[12],> 112 µM (not active)
same,EC50,[2],6.88 µM (active)
same,AC50,INS1,0.951 µM (active)
same,AC50,HEK293,2 µM (active)
same,EC50,Streptococcus,1.36 µM (active)
same,EC50,[3],0.253 µM (active)
O=c1c2ccccc2[nH]c(=S)n1CCN1CCCC1,IC50,[13],8.33 µM (active)
same,IC50,[14],4.01 µM (active)
Cc1cccc(N2CCN(C(=O)CCCn3c(=O)[nH]c4ccsc4c3=O)CC2C)c1 (stereo not given),IC50,[13],9.39 µM (active)
same,IC50,[14],8.43 µM (active)
CCc1ccc(CN(C)CCc2ccccn2)cc1,EC50,cells,0.035 µM (active)
same,EC50,[2],> 30 µM (not active)
same,EC50,[3],< 0.1 µM (active)
COC1CCC(OC2CC(C3(C)CCC4(CC(O)C(C)C(C(C)/C=C(\C)C(=O)C(C)CC(C)C(=O)O)O4)O3)OC3(OC(C4OC(O)(CO)C(C)CC4C)CC3C)C2C)OC1C (stereo not given),AC50,[11],5.72 µM (active)
N#Cc1c(N)nc(SCc2ccccn2)c(C#N)c1-c1cccs1,IC50,[13],0.158 µM (active)
same,IC50,[14],0.0829 µM (active)
COc1ccc2nc(N(CCN(C)C)C(=O)c3ccc4c(c3)OCCO4)sc2c1,EC50,cells,0.095 µM (active)
same,EC50,[2],> 60 µM (not active)
same,EC50,[3],< 0.1 µM (active)
COc1cccc(Nc2nc(NCC3CCCO3)c3ccccc3n2)c1 (stereo not given),EC50,cells,0.443 µM (active)
same,EC50,[15],7.57 µM (active)
same,EC50,[2],> 30 µM (not active)
same,EC50,[16],7.05 µM (active)
same,EC50,[3],< 0.1 µM (active)
COc1cccc(/N=c2\oc3ccc(OC)cc3cc2-c2nc3ccccc3[nH]2)c1,IC50,[17],> 50 µM (inactive)
same,IC50,[18],41 µM (active)
same,IC50,[19],7.91 µM (active)
same,IC50,[20],> 67.5 µM (inactive)
Cc1nccn1C[C@@H]1CCc2c(c3ccccc3n2C)C1=O [(S)-ONDANSETRON],IC50,[13],0.0214 µM (active)
same,AC50,Cytochrome P450 2D6,10 µM (inconclusive)
same,IC50,[14],1.12 µM (active)
CCN=C(S)N1CCC(C(O)(c2ccccc2)c2ccccc2)CC1,EC50,[4],10.6 µM (active)
same,EC50,[5],1.68 µM (active)
